Columns and labels:
[1] = system: K63-linked diUb (K63-Ub2); test: Fluorescence anisotropy binding to K63-linked diUb
K63-Ub4 = test: Fluorescence anisotropy binding to K63-linked tetraUb; details: ratio of Kd values, solution-state measurements

REVNSQEREVNSQE: Rap80 tUIM peptide with linker between UIMs extended to 14 residues
linkage selectivity for diUb (K63-Ub2 vs K48-Ub2), in words [1]: very little selectivity | K63-Ub2 binding affinity, in words ([1]; compared with other tUIM peptides): substantially more weakly

B1: Rap80 (residues 1 - 233): soluble fragment of Rap80 longer than the minimal tUIMs (protein, UniProt Q96RL1 1-233, looked up, fragment)
chain: MPRRKKKVKEVSESRNLEKKDVETTSSVSVKRKRRLEDAFIVISDSDGEEPKEENGLQKTKTKQSNRAKCLAKRKIAQMTEEEQFALALKMSEQEAREVNSQEEEEEELLRKAIAESLNSCRPSDASATRSRPLATGPSSQSHQEKTTDSGLTEGIWQLVPPSLFKGSHISQGNEAEEREEPWDHTEKTEEEPVSGSSGSWDQSSQPVFENVNVKSFDRCTGHSAEHTQCGKP
preference for K63-Ub4 over K48-Ub4 (K63-Ub4): 7 fold
